Assay results reported in PMC7824033, “Flavones, Flavonols, and Glycosylated Derivatives—Impact on Candida albicans Growth and Virulence, Expression of CDR1 and ERG11, Cytotoxicity” (Pharmaceuticals, 2020).
≈ marks a conversion by molar mass, not a printed value. Entries after “also recorded” stand apart in the source; their conditions may differ. Like-named read-outs stand apart in the source and are kept apart here.

Tests used:
C. albicans 13/15 = test: Microdilution assay, MIC and MFC; type: cell-based; conditions: Candida albicans, C. albicans 13/15, mean ± SD of three replicates
Source text: (§1) C. albicans was isolated from oral cavities of patients at ENT Clinic, Clinical Hospital Centre Zvezdara, Belgrade, Serbia after obtaining informed written consent and identified by using CHROMagar plates (Biomerieux, Craponne, France). Strains were maintained on Sabouraud Dextrose Agar (Merck, Darmstadt, Germany) and are deposited at the Mycological Laboratory, Department of Plant Physiology, Institute for Biological Research “Siniša Stanković”, National Institute of Republic of Serbia, University of Belgrade. The collection of samples was approved by the Ethical Committee (Office for Human Research Protection, Zvezdara University Medical Center, Belgrade, Serbia, document issued 26 October 2016).
(§2) Microdilution assay with some modification was used for determination of minimum inhibitory (MIC) and minimum fungicidal concentrations (MFC). Yeast cultures were adjusted to 1.0 × 10^5 CFU/per well with sterile PBS (Phosphate buffered saline, pH 7.4). The 96-well microtiter plates with serially diluted flavonoids (concentration range 0.3–75 µg/mL) in liquid broth were incubated at 37 °C for 24 h. After incubation, MIC and MFC were determined. The lowest concentrations that were not inducing microscopically observed growth were considered as MIC. For microscopic determination of growth, we used inverted microscope Nikon Eclipse TS2 (Amsterdam, Netherland) and examined the fungal growth in the wells of 96-well microtiter plates compared to the control (untreated yeast cells). MFC values were determined as concentrations without visible growth after serial sub-cultivation of 10 µL of samples at 37 °C for 24 h. Ketoconazole and amphotericin B (SigmaAldrich, Darmstadt, Germany) were used as an antifungal control. The tested flavonoids were obtained from Extrasynthese, Rhone, France.

C. albicans 475/15 [1] = test: Microdilution assay, MIC and MFC; type: cell-based; conditions: Candida albicans, C. albicans 475/15, mean ± SD of three replicates
Source text: as §1, §2

C. albicans 10/15 = test: Microdilution assay, MIC and MFC; type: cell-based; conditions: Candida albicans, C. albicans 10/15, mean ± SD of three replicates
Source text: as §1, §2

C. albicans 527/14 = test: Microdilution assay, MIC and MFC; type: cell-based; conditions: Candida albicans, C. albicans 527/14, mean ± SD of three replicates
Source text: as §1, §2

[2] = system: C. albicans 475/15 biofilm formation; test: Inhibition of biofilm formation (crystal violet); type: cell-based, Candida albicans; conditions: concentration not given
Experimental: Potential of selected compounds to interfere with C. albicans 475/15 biofilm formation was investigated as previously described. Briefly, C. albicans 475/15 was incubated with serial dilution of the compounds (MIC and subMICs) in YPD medium, in 96-well microtiter plates with adhesive bottom (Sarstedt, Nümbrecht, Germany), at 37 °C for 24 h. After incubation, wells were washed twice with sterile PBS and methanol was added into each well. After fixation, methanol was discarded, and the plate was air dried. Formed biofilms were stained with 0.1% crystal violet (Bio-Merieux, Craponne, France) for 30 min. The plate was gently washed under the tap of water and air dried. The stain bound to the remaining biofilms was dissolved with ethanol (96%, Zorka, Šabac, Serbia). Absorbance was read on a Multiskan™ FC Microplate Photometer, Thermo Scientific™. The percentage of inhibition of biofilm formation was calculated by the formula:[(A620control − A620sample)/A620control] × 100

C. albicans biofilm = conditions: cited from earlier work
in vitro = conditions: pig
Experimental: Preparation of PLP2 cell line was performed with freshly harvested porcine liver supplied from a local slaughter house. Tissues from the liver were washed in Hank’s balanced salt solution comprising 100 U/mL penicillin and 100 μg/mL streptomycin and split into 1 × 1 mm^3 explants. Some of the prepared explants were set in 25 cm^2 tissue flasks in Dulbecco’s modified Eagle’s medium (DMEM) with 10% fetal bovine serum (FBS), 2 mM nonessential amino acids, 100 U/mL penicillin, and […] streptomycin, and incubation was conducted at 37 °C with 5% CO2 in a humidified atmosphere. The fresh medium was added every 2 days. Cultivation of the cells was further conducted with direct observation by the phase contrast microscope every 2–3 days. Before confluence was achieved, cells were subcultured and seeded in 96-well plates at a density of 1.0 × 10^4 cells per well and cultivated in DMEM supplemented with 10% FBS, 100 U/mL penicillin, and 100 μg/mL streptomycin. Previously described Sulforhodamine B assay was used for the determination of cytotoxicity. The obtained results were defined as GI50 values corresponding to the compound concentration that inhibits 50% of the net cell growth. Ellipticine was used as a positive control.

C. albicans 475/15 [3] = system: C. albicans 475/15; parameters: method as in PMID 28827996; conditions: previously published; cited from earlier work
ERG11 = test: Expression of ERG11 (qPCR); type: cell-based, Candida albicans; conditions: treatment with MIC
Experimental: (§3) Total RNA was isolated as described by Sanglard et al. with some modifications. C. albicans 475/15 was grown with agitation at 30 °C in YEPD until OD540 = 0.4. C. albicans cells were incubated with MIC of compounds in YEPD at 30 °C with agitation for 30 min. Cells were centrifuged (4600 rpm, 4 °C for 5 min (Rotanata 460 R, Hettich, Tuttlingen, Germany)) and the pellet was resuspended in 300 µL of RNA buffer (0.1 M Tris-HCl pH 7.5, 0.1M LiCl, 10mM EDTA, 0.5% SDS). The pellet was homogenized with 200 µL of DEPC treated glass beads and 300 µL of Phenol:Chloroform:Isoamyl Alcohol (Sigma-Aldrich, Darmstadt, Germany) in Precellys Evolution tissue homogenizer (Bertion instruments, Montigny-le-Bretonneux, France) at 4500 rpm for 5 s. After centrifugation (14,000 rpm, 4 °C, 1 min (Universal 32 R, Hettich, Tuttlingen, Germany)) 200 µL of supernatant was vortexed with 250 µL of Phenol:Chloroform:Isoamyl Alcohol for 10 s. Samples were centrifuged (14,000 rpm, 4 °C, 1 min) and 200 µL of supernatant was transferred to new tubes, 400 µL of ice-cold 99% ethanol was added to each tube, and they were kept on dry ice for 10 min. Samples were centrifuged (14,000 rpm, 4 °C, 2 min), pellet was washed with ethanol (70%), left to dry at room temperature, after which it was dissolved in 50 µL of DEPC treated water. Nanodrop (ND-1000, Witec AG, Sursee, Switzerland) was used for determination of concentration and purity of samples. RNA was stored at −80°C.
(§4) Amount of 10 µg RNA was incubated with 5 µL of DNAse buffer and 1 µL of DNAse at 37 °C for 30 min (DNA-free™ DNA Removal Kit, Ambion, Bleiswijk, Netherlands). After addition of DNAse inactivation reagent tubes were kept at room temperature with occasional vortexing for 5 min. Samples were centrifuged (14,000 rpm, 4°C, 2 min) and the concentration and quality of supernatant were analyzed on Nanodrop (ND-1000, Witec AG, Sursee, Switzerland).
(§5) Synthesis of cDNA was done with a Transcriptor High Fidelity cDNA synthesis kit (Roche). RNA (1 µg) was incubated with 60 µM random hexamer primers, in 11.4 µL of total sample volume, at 65 °C for 10 min. The mixture of Transcriptase reaction buffer 5×, Deoxynucleotide mix, DTT, Protector RNAse inhibitor, and Transcriptor High Fidelity Reverse Transcriptase was added to each tube according to manufacturer instructions. Synthesis of cDNA was completed by incubating the mixture at 50 °C for 30 min and 85 °C for 5 min (Peqstar thermocycler, Peqlab, Erlangen, Germany).
(§6) Wells of MicroAmp Fast 96-Well Reaction plate ((0.1 mL), Applied biosystems, Waltham, MA, USA) were incubated with 10 µL of mixture (cDNA, 2× MasterMix, primers, probe (Table 3), and water). Analysis was performed in StepOnePlus Real Time PCR system with relative standard curve method. Expression levels of CDR1 and ERG11 were normalized to expression of ACT1.

[4] = system: HUVE (human umbilical vein endothelial) cells; conditions: read-out: LC50; cited from earlier work
[5] = system: C. albicans 475/15 hyphal growth; test: Anti-hyphal forming activity; type: cell-based, Candida albicans; conditions: MIC, 4 h, YPD + 10% FBS
Experimental: C. albicans 475/15 cells were incubated with MIC of tested compounds in YPD + 10% FBS, at 37 °C, for 4 h. Cells were examined under microscope (Nikon Eclipse TS2, Amsterdam, Netherland) and number of cells, growing in the yeast or hyphal and germ tube formations, was determined. Assay was performed in triplicate and percentage of hyphae was determined.

S. aureus efflux = system: S. aureus efflux; parameters: method as in PMID 25961825; conditions: bacterial efflux pumps; cited from earlier work
CDR1 = test: Expression of CDR1 (qPCR); type: cell-based, Candida albicans; conditions: treatment with MIC
Experimental: as §3, §4, §5, §6

| MIC (C. albicans 13/15; read-out: MIC) [µg/mL] | MIC (C. albicans 475/15 [1]; read-out: MIC) [µg/mL] | MIC (C. albicans 10/15; read-out: MIC) [µg/mL] | MIC (C. albicans 527/14; read-out: MIC) [µg/mL] | Structure (SMILES) | MFC (C. albicans 13/15; read-out: MFC) [µg/mL] | MFC (C. albicans 475/15 [1]; read-out: MFC) [µg/mL] | MFC (C. albicans 10/15; read-out: MFC) [µg/mL] | MFC (C. albicans 527/14; read-out: MFC) [µg/mL] | reduction of biofilm formation [2] | antibiofilm effect (C. albicans biofilm; 125 µg/mL, oral and reference isolates SC5314 and 3153A) | concentration necessary for biofilm reduction (C. albicans biofilm; C. albicans ATCC 90028) [µg/mL] | GI50 (in vitro) [µg/mL] | MIC (C. albicans 475/15 [3]) [µg/mL] | impact on ERG11 expression (words) (ERG11) | impact on ERG11 expression (words) (ERG11; listed as apigenin) | CC50 [4] [µM] | reduction of hyphal growth (words) [5] | concentration that inhibited bacterial efflux pumps (S. aureus efflux) [µg/mL] | CDR1 expression level, log2FC (CDR1; 30 min, normalized to ACT1) [log2FC] | impact on CDR1 expression (CDR1; listed as apigenin) |
| --- | --- | --- | --- | --- | --- | --- | --- | --- | --- | --- | --- | --- | --- | --- | --- | --- | --- | --- | --- | --- |
| 0.63 ± 0.001 (≈ 0.682 µM) | 0.63 ± 0.001 (≈ 0.682 µM) | 0.63 ± 0.001 (≈ 0.682 µM) | 0.63 ± 0.001 (≈ 0.682 µM) | C[C@@H]1[C@H](O)[C@@H](C)/C=C/C=C/C=C/C=C/C=C/C=C/C=C/[C@H](O[C@@H]2O[C@H](C)[C@@H](O)[C@H](N)[C@@H]2O)C[C@@H]2O[C@](O)(C[C@@H](O)C[C@@H](O)[C@H](O)CC[C@@H](O)C[C@@H](O)CC(=O)O[C@H]1C)C[C@H](O)[C@H]2C(=O)O [Amphotericin B, amphotericin B, reference compound] | 1.25 ± 0.002 (≈ 1.35 µM) | 1.25 ± 0.002 (≈ 1.35 µM) | 1.25 ± 0.002 (≈ 1.35 µM) | 1.25 ± 0.002 (≈ 1.35 µM) | – | – | – | – | – | – | – | – | – | – | – | – |
| – | – | – | – | O=c1cc(-c2ccc(O)cc2)oc2cc(O)cc(O)c12 [Apigenin, apigenin] | – | – | – | – | more than 50% | did not show any antibiofilm effect | 5 | > 400 | 100 (≈ 370 µM) | negative impact | lower expression levels; also recorded: lowering ERG11 expression | 110 | lowest number of cells growing in the hyphal form | 38 | < −1 | downregulated; also recorded: inhibitory impact; also recorded: lowering CDR1 expression |
| – | – | – | – | Cc1c2ccncc2c(C)c2c1[nH]c1ccccc12 [Ellipticin, Ellipticine, reference compound] | – | – | – | – | – | – | – | 3.22 ± 0.2 (≈ 13.1 µM) | – | – | – | – | – | – | – | – |
